From ChEMBL document CHEMBL1149041, “Polypropionates from the Mediterranean Mollusk Elysia timida” (J Nat Prod, 1994)

Tested on: Gambusia affinis
Assay: Ichthyotoxicity against Gambusia affinis at 5 ppm
Type: organism-based
Details: in vivo; call rule not given here

| SMILES | Activity |
| --- | --- |
| CC/C=C(\C)[C@H]1C(C)=CC(C)=C[C@]1(C)c1oc(OC)c(C)c(=O)c1C | Active |
| C/C=C(\C)[C@H]1C(C)=C[C@@]2(C)[C@@H]1[C@]2(C)c1oc(OC)c(C)c(=O)c1C | Active |
| CC/C=C(\C)[C@H]1C(C)=C[C@@]2(C)[C@@H]1[C@]2(C)c1oc(OC)c(C)c(=O)c1C [PHOTODEOXYTRIDACHIONE] | Active |
